According to patent US7273848B2, “Apolipoprotein A-I agonists and their use to treat dyslipidemic disorders” (priority 1997, dated 2007):
Non-standard residues stand in square brackets, D forms with d. Residues, ends and D or L forms follow the SMILES beside them. No end group written: not given here. Orn = NCCC[C@H](N)C(=O)O; Aib = CC(C)(N)C(=O)O

Target: T1, LCAT (purified from human plasma) (Homo sapiens, UniProt P04180)
T1 construct: from tissue; host or cells: human plasma
T1 sequence (P04180 25-440): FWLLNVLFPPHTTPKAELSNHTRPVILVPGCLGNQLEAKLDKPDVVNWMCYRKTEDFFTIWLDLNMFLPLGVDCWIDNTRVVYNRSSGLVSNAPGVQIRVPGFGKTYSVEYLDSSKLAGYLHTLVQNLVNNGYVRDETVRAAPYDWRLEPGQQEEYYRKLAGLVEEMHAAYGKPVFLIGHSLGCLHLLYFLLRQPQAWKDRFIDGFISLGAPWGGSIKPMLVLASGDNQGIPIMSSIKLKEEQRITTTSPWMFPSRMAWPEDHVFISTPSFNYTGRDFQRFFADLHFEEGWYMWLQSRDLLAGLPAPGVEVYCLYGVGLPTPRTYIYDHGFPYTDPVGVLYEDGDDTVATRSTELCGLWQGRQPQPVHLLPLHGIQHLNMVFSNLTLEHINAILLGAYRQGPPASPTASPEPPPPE
Test: LCAT activation assay
Assay type: biochemical
Details: LCAT activation as compared with native human ApoA-I (= 100%), equivalent masses
Procedure, shortened: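 Substrate SUVs of EPC or POPC with 14C-cholesterol (20:1 molar ratio), in 10 mM Tris, 0.14 M NaCl, 1 mM EDTA, pH 7.4, were preincubated with peptide or equal mass of plasma ApoA-I. Reaction started with human plasma LCAT; activation was measured as cholesterol-to-ester conversion relative to ApoA-I (100%).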

| Molecule | ACTIVITY (%) LCAT [%] |
| --- | --- |
| CC(C)C[C@H](NC(=O)[C@H](C)NC(=O)[C@H](CCC(=O)O)NC(=O)[C@H](CC(C)C)NC(=O)C(C)(C)NC(=O)[C@H](CCC(=O)O)NC(=O)[C@H](CC(N)=O)NC(=O)[C@H](CC(C)C)NC(=O)[C@H](CCCCN)NC(=O)[C@H](CCC(=O)O)NC(=O)[C@H](CCCNC(=N)N)NC(=O)[C@H](Cc1ccccc1)NC(=O)[C@H](CCC(=O)O)NC(=O)[C@H](CC(=O)O)NC(=O)[C@H](CC(C)C)NC(=O)[C@H](Cc1c[nH]cn1)NC(=O)[C@@H]1CCCN1)C(=O)N[C@@H](CCCCN)C(=O)N[C@@H](CCC(N)=O)C(=O)N[C@@H](CCCCN)C(=O)N[C@@H](CC(C)C)C(=O)N[C@@H](CCCCN)C(=O)O [compound 116, PHLDEFREKLNEXLEALKQKLK] (H-PHLDEFREKLNE[Aib]LEALKQKLK-OH) | 0 |
| CC(C)C[C@H](NC(=O)[C@H](C)NC(=O)[C@H](CCC(=O)O)NC(=O)[C@H](CC(C)C)NC(=O)C(C)(C)NC(=O)[C@H](CCC(=O)O)NC(=O)[C@H](CC(N)=O)NC(=O)[C@H](CC(C)C)NC(=O)[C@H](CCCCN)NC(=O)[C@H](CCC(=O)O)NC(=O)[C@H](CCCNC(=N)N)NC(=O)[C@H](Cc1ccccc1)NC(=O)[C@H](CCC(=O)O)NC(=O)[C@H](CC(=O)O)NC(=O)[C@H](CC(C)C)NC(=O)[C@H](CCC(=O)O)NC(=O)[C@@H]1CCCN1)C(=O)N[C@@H](CCCCN)C(=O)N[C@@H](CCC(N)=O)C(=O)N[C@@H](CCCCN)C(=O)N[C@@H](CC(C)C)C(=O)N[C@@H](CCCCN)C(=O)O [compound 117, PELDEFREKLNEXLEALKQKLK] (H-PELDEFREKLNE[Aib]LEALKQKLK-OH) | 0 |
| CC(C)C[C@H](NC(=O)[C@H](C)NC(=O)[C@H](CCC(=O)O)NC(=O)[C@H](CC(C)C)NC(=O)C(C)(C)NC(=O)[C@H](CCC(=O)O)NC(=O)[C@H](CC(N)=O)NC(=O)[C@H](CC(C)C)NC(=O)[C@H](CCCCN)NC(=O)[C@H](CCC(=O)O)NC(=O)[C@H](CCCNC(=N)N)NC(=O)[C@H](Cc1ccccc1)NC(=O)[C@H](CCC(=O)O)NC(=O)[C@H](CC(=O)O)NC(=O)[C@H](CC(C)C)NC(=O)[C@@H](NC(=O)[C@@H]1CCCN1)C(C)C)C(=O)N[C@@H](CCC(=O)O)C(=O)N[C@@H](CCC(N)=O)C(=O)N[C@@H](CCCCN)C(=O)N[C@@H](CC(C)C)C(=O)N[C@@H](CCCCN)C(=O)O [compound 118, PVLDEFREKLNEXLEALEQKLK] (H-PVLDEFREKLNE[Aib]LEALEQKLK-OH) | 0 |
| CC(C)C[C@H](NC(=O)[C@H](CCCCN)NC(=O)[C@H](CCC(N)=O)NC(=O)[C@H](CCCCN)NC(=O)C(C)(C)NC(=O)[C@H](C)NC(=O)[C@H](CCC(=O)O)NC(=O)[C@H](CC(C)C)NC(=O)[C@H](CCC(=O)O)NC(=O)[C@H](CCC(=O)O)NC(=O)[C@H](CC(N)=O)NC(=O)[C@H](CC(C)C)NC(=O)[C@H](CCCCN)NC(=O)[C@H](CCC(=O)O)NC(=O)[C@H](CCCNC(=N)N)NC(=O)[C@H](Cc1ccccc1)NC(=O)[C@H](CCC(=O)O)NC(=O)[C@H](CC(=O)O)NC(=O)[C@H](CC(C)C)NC(=O)[C@@H](NC(=O)[C@@H]1CCCN1)C(C)C)C(=O)N[C@@H](CCCCN)C(=O)O [compound 119, PVLDEFREKLNEELEAXKQKLK] (H-PVLDEFREKLNEELEA[Aib]KQKLK-OH) | 0 |
| CC(C)C[C@H](NC(=O)[C@H](CCCCN)NC(=O)[C@H](CCC(N)=O)NC(=O)[C@H](CCCCN)NC(=O)[C@H](CC(C)C)NC(=O)C(C)(C)NC(=O)[C@H](CCC(=O)O)NC(=O)[C@H](CC(C)C)NC(=O)[C@H](CCC(=O)O)NC(=O)[C@H](CCC(=O)O)NC(=O)[C@H](CC(N)=O)NC(=O)[C@H](CC(C)C)NC(=O)[C@H](CCCCN)NC(=O)[C@H](CCC(=O)O)NC(=O)[C@H](CCCNC(=N)N)NC(=O)[C@H](Cc1ccccc1)NC(=O)[C@H](CCC(=O)O)NC(=O)[C@H](CC(=O)O)NC(=O)[C@H](CC(C)C)NC(=O)[C@@H](NC(=O)[C@@H]1CCCN1)C(C)C)C(=O)N[C@@H](CCCCN)C(=O)O [compound 120, PVLDEFREKLNEELEXLKQKLK] (H-PVLDEFREKLNEELE[Aib]LKQKLK-OH) | 0 |
| CC(C)C[C@H](NC(=O)[C@H](C)NC(=O)[C@H](CC(=O)O)NC(=O)[C@H](CC(C)C)NC(=O)[C@H](CC(C)C)NC(=O)[C@H](CCCN)NC(=O)[C@H](CCC(=O)O)NC(=O)[C@H](CC(C)C)NC(=O)[C@H](CC(C)C)NC(=O)[C@H](CC(N)=O)NC(=O)[C@H](CCC(=O)O)NC(=O)[C@H](Cc1ccccc1)NC(=O)[C@H](CC(C)C)NC(=O)[C@H](CCC(=O)O)NC(=O)[C@H](CC(C)C)NC(=O)[C@@H](NC(=O)[C@@H]1CCCN1)C(C)C)C(=O)N[C@@H](CCC(N)=O)C(=O)N[C@@H](CCCN)C(=O)N[C@@H](CCCN)C(=O)N[C@@H](CC(C)C)C(=O)N[C@@H](CCCN)C(=O)O [compound 170, PVLELFENLLEOLLDALQOOLO] (H-PVLELFENLLE[Orn]LLDALQ[Orn][Orn]L[Orn]-OH) | 17 |
| CC(C)C[C@@H](NC(=O)[C@@H](C)NC(=O)[C@@H](CC(=O)O)NC(=O)[C@@H](CC(C)C)NC(=O)[C@@H](CC(C)C)NC(=O)[C@@H](CCCNC(=N)N)NC(=O)[C@@H](CCC(=O)O)NC(=O)[C@@H](CC(C)C)NC(=O)[C@@H](CC(C)C)NC(=O)[C@@H](CC(N)=O)NC(=O)[C@@H](CCC(=O)O)NC(=O)[C@@H](Cc1ccccc1)NC(=O)[C@@H](CC(C)C)NC(=O)[C@@H](CCC(=O)O)NC(=O)[C@@H](CC(C)C)NC(=O)[C@H](NC(=O)[C@H]1CCCN1)C(C)C)C(=O)N[C@H](CCC(N)=O)C(=O)N[C@H](CCCCN)C(=O)N[C@H](CCCCN)C(=O)N[C@H](CC(C)C)C(=O)N[C@H](CCCCN)C(=O)O [compound 174, pvlelfenllerlldalqkklk] (H-[dP][dV][dL][dE][dL][dF][dE][dN][dL][dL][dE][dR][dL][dL][dD][dA][dL][dQ][dK][dK][dL][dK]-OH) | 13 |
| CC(C)C[C@H](NC(=O)[C@H](C)NC(=O)[C@H](CC(=O)O)NC(=O)[C@H](CC(C)C)NC(=O)[C@H](CC(C)C)NC(=O)[C@H](CCCNC(=N)N)NC(=O)[C@H](CCC(=O)O)NC(=O)[C@H](CC(C)C)NC(=O)[C@H](CC(C)C)NC(=O)[C@H](CC(N)=O)NC(=O)[C@H](CCC(=O)O)NC(=O)[C@H](Cc1ccccc1)NC(=O)[C@H](CC(C)C)NC(=O)[C@H](CCC(=O)O)NC(=O)[C@H](CC(C)C)NC(=O)[C@@H](NC(=O)[C@@H]1CCCN1)C(C)C)C(=O)N[C@@H](CCC(N)=O)C(=O)N[C@@H](CCCN)C(=O)N[C@@H](CCCN)C(=O)N[C@@H](CC(C)C)C(=O)N[C@@H](CCCN)C(=O)O [compound 185, PVLELFENLLERLLDALQOOLO] (H-PVLELFENLLERLLDALQ[Orn][Orn]L[Orn]-OH) | 3 |
| CC(=O)N1CCC[C@H]1C(=O)N[C@H](C(=O)N[C@@H](CC(C)C)C(=O)N[C@@H](CC(=O)O)C(=O)N[C@@H](CC(C)C)C(=O)N[C@@H](Cc1ccccc1)C(=O)N[C@@H](CCCNC(=N)N)C(=O)N[C@@H](CCC(=O)O)C(=O)N[C@@H](CC(C)C)C(=O)N[C@@H](CC(C)C)C(=O)N[C@@H](CCC(=O)O)C(=O)N[C@@H](CCC(=O)O)C(=O)N[C@@H](CC(C)C)C(=O)N[C@@H](CCCN)C(=O)N[C@@H](CCC(N)=O)C(=O)N[C@@H](CCCN)C(=O)N[C@@H](CC(C)C)C(=O)N[C@@H](CCCN)C(N)=O)C(C)C [compound 211, PVLDLFRELLEELOQOLO] (Ac-PVLDLFRELLEEL[Orn]Q[Orn]L[Orn]-NH2) | 45 |
| CC(=O)N1CCC[C@H]1C(=O)N[C@H](C(=O)N[C@@H](CC(C)C)C(=O)N[C@@H](CC(=O)O)C(=O)N[C@@H](CC(C)C)C(=O)N[C@@H](Cc1ccccc1)C(=O)N[C@@H](CCCN)C(=O)N[C@@H](CCC(=O)O)C(=O)N[C@@H](CC(C)C)C(=O)N[C@@H](CC(C)C)C(=O)N[C@@H](CCC(=O)O)C(=O)N[C@@H](CCC(=O)O)C(=O)N[C@@H](CC(C)C)C(=O)N[C@@H](CCCN)C(=O)N[C@@H](CCC(N)=O)C(=O)N[C@@H](CCCN)C(=O)N[C@@H](CC(C)C)C(=O)N[C@@H](CCCCN)C(N)=O)C(C)C [compound 212, PVLDLFOELLEELOQOLK] (Ac-PVLDLF[Orn]ELLEEL[Orn]Q[Orn]LK-NH2) | 43 |
| CC(=O)N1CCC[C@@H]1C(=O)N[C@H](C(=O)N[C@@H](CC(C)C)C(=O)N[C@@H](CC(=O)O)C(=O)N[C@@H](CC(C)C)C(=O)N[C@@H](Cc1ccccc1)C(=O)N[C@@H](CCCNC(=N)N)C(=O)N[C@@H](CCC(=O)O)C(=O)N[C@@H](CC(C)C)C(=O)N[C@@H](CC(C)C)C(=O)N[C@@H](CCC(=O)O)C(=O)N[C@@H](CCC(=O)O)C(=O)N[C@@H](CC(C)C)C(=O)N[C@@H](CCCCN)C(=O)N[C@@H](CCC(N)=O)C(=O)N[C@@H](CCCCN)C(=O)N[C@@H](CC(C)C)C(=O)N[C@@H](CCCCN)C(N)=O)C(C)C [compound 214] (Ac-[dP]VLDLFRELLEELKQKLK-NH2) | 39 |
| AVLDLFRELLNELLEALKQKLK [compound 29] | 39 |
| AVLELFENLLERLLDALQKKLK [peptide 153] | 49 |
| Ac-AVLDLFRELLEELKQKLK-NH2 [compound 203] | 66 |
| Ac-DVLDLFRELLEELKQKLK-NH2 [compound 221] | 12 |
| Ac-EWLEAFYKKVLEKLKELF-NH2 [compound 239, reference compound] | 11 |

Same assay, conditions: LCAT activation as compared with native human ApoA-I (= 100%), equivalent masses; listed as N-acetylated, C-amidated peptide 18AM4

| Molecule | ACTIVITY (%) LCAT [%] |
| --- | --- |
| Ac-EWLEAFYKKVLEKLKELF-NH2 [compound 239, reference compound] | < 11 |
